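Compound exposure: 48 hours, 5 concentrations, 96-well plates. Definition used: TGI = concentration required for complete inhibition of growth.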
What was measured:
Test in all cases: growth of human tumour cells (NCI), 48 h
MOLT-4 leukemia = tested on: MOLT-4 leukemia
DU-145 prostate = tested on: DU-145 prostate
OVCAR-4 ovarian = tested on: OVCAR-4 ovarian
SNB-75 CNS = tested on: SNB-75 CNS
K-562 leukemia = tested on: K-562 leukemia
EKVX NSCLC = tested on: EKVX NSCLC
OVCAR-3 ovarian = tested on: OVCAR-3 ovarian
NCI-H23 lung = tested on: NCI-H23 lung
RXF 393 renal = tested on: RXF 393 renal
786-0 renal = tested on: 786-0 renal
UACC-62 melanoma = tested on: UACC-62 melanoma
U251 CNS = tested on: U251 CNS
NCI-H522 lung = tested on: NCI-H522 lung
COLO 205 colon = tested on: COLO 205 colon
MDA-N = tested on: MDA-N
UO-31 renal = tested on: UO-31 renal
PC-3 prostate = tested on: PC-3 prostate
SNB-19 CNS = tested on: SNB-19 CNS
TK-10 renal = tested on: TK-10 renal
SW-620 colon = tested on: SW-620 colon
SF-295 CNS = tested on: SF-295 CNS
ACHN renal = tested on: ACHN renal
HS 578T breast = tested on: HS 578T breast
HCT-15 colon = tested on: HCT-15 colon
SK-MEL-5 melanoma = tested on: SK-MEL-5 melanoma
UACC-257 melanoma = tested on: UACC-257 melanoma
SN12C renal = tested on: SN12C renal
T-47D breast = tested on: T-47D breast
NCI-H226 lung = tested on: NCI-H226 lung
MDA-MB-231 breast = tested on: MDA-MB-231 breast
A549 NSCLC = tested on: A549 NSCLC
M14 melanoma = tested on: M14 melanoma
MDA-MB-435 = tested on: MDA-MB-435
SF-539 CNS = tested on: SF-539 CNS
HCT-116 colon = tested on: HCT-116 colon
HL-60(TB) leukemia = tested on: HL-60(TB) leukemia
CCRF-CEM leukemia = tested on: CCRF-CEM leukemia
OVCAR-5 ovarian = tested on: OVCAR-5 ovarian
SK-MEL-2 melanoma = tested on: SK-MEL-2 melanoma
HT29 colon = tested on: HT29 colon
BT-549 breast = tested on: BT-549 breast
NCI-H460 lung = tested on: NCI-H460 lung
NCI/ADR-RES ovarian = tested on: NCI/ADR-RES ovarian
OVCAR-8 ovarian = tested on: OVCAR-8 ovarian
HOP-62 NSCLC = tested on: HOP-62 NSCLC
HOP-92 NSCLC = tested on: HOP-92 NSCLC
SK-OV-3 ovarian = tested on: SK-OV-3 ovarian
SK-MEL-28 melanoma = tested on: SK-MEL-28 melanoma
RPMI-8226 leukemia = tested on: RPMI-8226 leukemia
KM12 colon = tested on: KM12 colon
IGROV1 ovarian = tested on: IGROV1 ovarian
A498 renal = tested on: A498 renal
MALME-3M melanoma = tested on: MALME-3M melanoma
HCC-2998 colon = tested on: HCC-2998 colon
SF-268 CNS = tested on: SF-268 CNS
SR leukemia = tested on: SR leukemia
CAKI-1 renal = tested on: CAKI-1 renal
LOX IMVI melanoma = tested on: LOX IMVI melanoma
MCF7 breast = tested on: MCF7 breast

SMILES: CN(C)CCNc1c(O)c2c(c(O)c1Cl)C(=O)C=CC2=O
- TGI (MOLT-4 leukemia): > 100 µM
- TGI (DU-145 prostate): 3.36 µM
- TGI (OVCAR-4 ovarian): 3.29 µM
- TGI (SNB-75 CNS): 6.55 µM
- TGI (K-562 leukemia): 6.66 µM
- TGI (EKVX NSCLC): 7.69 µM
- TGI (OVCAR-3 ovarian): 3.61 µM
- TGI (NCI-H23 lung): 4.25 µM
- TGI (RXF 393 renal): 15.4 µM
- TGI (786-0 renal): 4.27 µM
- TGI (UACC-62 melanoma): 3.74 µM
- TGI (U251 CNS): 3.74 µM
- TGI (NCI-H522 lung): 3.52 µM
- TGI (COLO 205 colon): 3.47 µM
- TGI (MDA-N): 4.64 µM
- TGI (UO-31 renal): 4.75 µM
- TGI (PC-3 prostate): 17.8 µM
- TGI (SNB-19 CNS): 3.76 µM
- TGI (TK-10 renal): 5.68 µM
- TGI (SW-620 colon): 3.91 µM
- TGI (SF-295 CNS): 4.05 µM
- TGI (ACHN renal): 9.76 µM
- TGI (HS 578T breast): 7.56 µM
- TGI (HCT-15 colon): 4.29 µM
- TGI (SK-MEL-5 melanoma): 2.88 µM
- TGI (UACC-257 melanoma): 3.09 µM
- TGI (SN12C renal): 3.41 µM
- TGI (T-47D breast): 4.38 µM
- TGI (NCI-H226 lung): 50.1 µM
- TGI (MDA-MB-231 breast): 2.72 µM
- TGI (A549 NSCLC): 5.41 µM
- TGI (M14 melanoma): 3.64 µM
- TGI (MDA-MB-435): 3.68 µM
- TGI (SF-539 CNS): 3.28 µM
- TGI (HCT-116 colon): 3.32 µM
- TGI (HL-60(TB) leukemia): 4.33 µM
- TGI (CCRF-CEM leukemia): 4.72 µM
- TGI (OVCAR-5 ovarian): 3.12 µM
- TGI (SK-MEL-2 melanoma): 3.95 µM
- TGI (HT29 colon): 3.29 µM
- TGI (BT-549 breast): 3.17 µM
- TGI (NCI-H460 lung): 3.63 µM
- TGI (NCI/ADR-RES ovarian): 7.08 µM
- TGI (OVCAR-8 ovarian): 3.4 µM
- TGI (HOP-62 NSCLC): 3.65 µM
- TGI (HOP-92 NSCLC): 4.25 µM
- TGI (SK-OV-3 ovarian): 32.1 µM
- TGI (SK-MEL-28 melanoma): 4.36 µM
- TGI (RPMI-8226 leukemia): 8.14 µM
- TGI (KM12 colon): 3.39 µM
- TGI (IGROV1 ovarian): 3 µM
- TGI (A498 renal): 9.74 µM
- TGI (MALME-3M melanoma): 3.64 µM
- TGI (HCC-2998 colon): 3.59 µM
- TGI (SF-268 CNS): 35.2 µM

SMILES: CCOC(=O)Cn1nnc2ccc(Nc3nc4ccccc4nc3C(=O)OCC)cc21
- TGI (MOLT-4 leukemia): > 100 µM
- TGI (DU-145 prostate): > 100 µM
- TGI (OVCAR-4 ovarian): > 100 µM
- TGI (SNB-75 CNS): 46.5 µM
- TGI (K-562 leukemia): > 100 µM
- TGI (EKVX NSCLC): > 100 µM
- TGI (OVCAR-3 ovarian): > 100 µM
- TGI (NCI-H23 lung): > 100 µM
- TGI (RXF 393 renal): > 100 µM
- TGI (786-0 renal): > 100 µM
- TGI (UACC-62 melanoma): > 100 µM
- TGI (U251 CNS): > 100 µM
- TGI (NCI-H522 lung): > 100 µM
- TGI (COLO 205 colon): > 100 µM
- TGI (MDA-N): > 100 µM
- TGI (UO-31 renal): > 100 µM
- TGI (PC-3 prostate): > 100 µM
- TGI (SNB-19 CNS): > 100 µM
- TGI (TK-10 renal): > 100 µM
- TGI (SW-620 colon): > 100 µM
- TGI (SF-295 CNS): > 100 µM
- TGI (ACHN renal): > 100 µM
- TGI (HS 578T breast): > 100 µM
- TGI (HCT-15 colon): > 100 µM
- TGI (SK-MEL-5 melanoma): > 100 µM
- TGI (UACC-257 melanoma): > 100 µM
- TGI (SN12C renal): > 100 µM
- TGI (T-47D breast): > 100 µM
- TGI (NCI-H226 lung): > 100 µM
- TGI (A549 NSCLC): > 100 µM
- TGI (M14 melanoma): > 100 µM
- TGI (SR leukemia): > 100 µM
- TGI (MDA-MB-435): > 100 µM
- TGI (SF-539 CNS): 91.8 µM
- TGI (HCT-116 colon): > 100 µM
- TGI (HL-60(TB) leukemia): > 100 µM
- TGI (CCRF-CEM leukemia): > 100 µM
- TGI (OVCAR-5 ovarian): > 100 µM
- TGI (CAKI-1 renal): > 100 µM
- TGI (SK-MEL-2 melanoma): > 100 µM
- TGI (HT29 colon): > 100 µM
- TGI (LOX IMVI melanoma): > 100 µM
- TGI (BT-549 breast): > 100 µM
- TGI (NCI-H460 lung): > 100 µM
- TGI (NCI/ADR-RES ovarian): > 100 µM
- TGI (OVCAR-8 ovarian): > 100 µM
- TGI (HOP-62 NSCLC): > 100 µM
- TGI (HOP-92 NSCLC): > 100 µM
- TGI (SK-OV-3 ovarian): > 100 µM
- TGI (MCF7 breast): > 100 µM
- TGI (SK-MEL-28 melanoma): > 100 µM
- TGI (RPMI-8226 leukemia): > 100 µM
- TGI (KM12 colon): > 100 µM
- TGI (IGROV1 ovarian): > 100 µM
- TGI (A498 renal): > 100 µM
- TGI (MALME-3M melanoma): > 100 µM
- TGI (HCC-2998 colon): > 100 µM
- TGI (SF-268 CNS): > 100 µM

SMILES: Cn1c2ccccc2n2c(=O)c(-c3ccc(Cl)cc3)nnc12
- TGI (MOLT-4 leukemia): > 100 µM
- TGI (DU-145 prostate): > 100 µM
- TGI (OVCAR-4 ovarian): > 100 µM
- TGI (SNB-75 CNS): > 100 µM
- TGI (EKVX NSCLC): > 100 µM
- TGI (NCI-H23 lung): > 100 µM
- TGI (RXF 393 renal): > 100 µM
- TGI (786-0 renal): > 100 µM
- TGI (U251 CNS): > 100 µM
- TGI (NCI-H522 lung): > 100 µM
- TGI (COLO 205 colon): > 100 µM
- TGI (MDA-N): > 100 µM
- TGI (UO-31 renal): > 100 µM
- TGI (SNB-19 CNS): > 100 µM
- TGI (TK-10 renal): > 100 µM
- TGI (SW-620 colon): > 100 µM
- TGI (SF-295 CNS): > 100 µM
- TGI (ACHN renal): > 100 µM
- TGI (HS 578T breast): > 100 µM
- TGI (HCT-15 colon): > 100 µM
- TGI (SK-MEL-5 melanoma): > 100 µM
- TGI (UACC-257 melanoma): > 100 µM
- TGI (SN12C renal): > 100 µM
- TGI (T-47D breast): > 100 µM
- TGI (NCI-H226 lung): > 100 µM
- TGI (MDA-MB-231 breast): > 100 µM
- TGI (A549 NSCLC): > 100 µM
- TGI (M14 melanoma): > 100 µM
- TGI (SR leukemia): > 100 µM
- TGI (MDA-MB-435): > 100 µM
- TGI (SF-539 CNS): > 100 µM
- TGI (HCT-116 colon): > 100 µM
- TGI (HL-60(TB) leukemia): > 100 µM
- TGI (CCRF-CEM leukemia): > 100 µM
- TGI (OVCAR-5 ovarian): > 100 µM
- TGI (CAKI-1 renal): > 100 µM
- TGI (SK-MEL-2 melanoma): > 100 µM
- TGI (HT29 colon): > 100 µM
- TGI (LOX IMVI melanoma): > 100 µM
- TGI (BT-549 breast): > 100 µM
- TGI (NCI-H460 lung): > 100 µM
- TGI (NCI/ADR-RES ovarian): > 100 µM
- TGI (OVCAR-8 ovarian): > 100 µM
- TGI (HOP-92 NSCLC): > 100 µM
- TGI (MCF7 breast): > 100 µM
- TGI (SK-MEL-28 melanoma): > 100 µM
- TGI (KM12 colon): > 100 µM
- TGI (IGROV1 ovarian): > 100 µM
- TGI (A498 renal): > 100 µM
- TGI (MALME-3M melanoma): > 100 µM
- TGI (HCC-2998 colon): > 100 µM
- TGI (SF-268 CNS): > 100 µM
